In ChEMBL document CHEMBL1201862, “PubChem BioAssay data set” (2004):
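Where inhibition never reached the appropriate level, the endpoint shown equals the highest concentration tested. Otherwise, values were interpolated linearly from a five-concentration, 48-hour dose response in 96-well plates. GI50 is the concentration that inhibits growth by half.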 Active and inactive are the calls of the source. No stated cut-off is given here; in the data, active = GI50 up to about 1.1 µM and inactive = higher.

Key:
Assay in all cases: NCI tumour cell line growth inhibition, 48 h
[1] = test system: SK-MEL-28
[2] = test system: RPMI-8226
[3] = test system: U-251
[4] = test system: UACC-62
[5] = test system: T47D
[6] = test system: SNB-19
[7] = test system: UO-31
[8] = test system: MDA-MB-435
[9] = test system: SF-268
[10] = test system: KM12
[11] = test system: SR
[12] = test system: NCI-H460
[13] = test system: SF-539
[14] = test system: SN12C
[15] = test system: MDA-MB-231
[16] = test system: SK-MEL-2
[17] = test system: SW-620
[18] = test system: A549
[19] = test system: OVCAR-8
[20] = test system: NCI/ADR-RES

CC1CN=C(NCc2ccccc2)S1 (stereo unspecified)
GI50 [1]: > 100 µM (inactive) | GI50 [2]: > 100 µM (inactive) | GI50 [3]: > 100 µM (inactive) | GI50 [4]: > 100 µM (inactive) | GI50 [5]: > 100 µM (inactive) | GI50 [6]: > 100 µM (inactive) | GI50 [7]: > 100 µM (inactive) | GI50 [8]: 39.1 µM (inactive) | GI50 [9]: > 100 µM (inactive) | GI50 [10]: > 100 µM (inactive) | GI50 [11]: 29 µM (inactive) | GI50 [12]: > 100 µM (inactive) | GI50 [13]: > 100 µM (inactive) | GI50 [14]: > 100 µM (inactive) | GI50 [15]: > 100 µM (inactive) | GI50 [16]: > 100 µM (inactive)

COC(C/C=C\C=C\CC/C=C/CC(C)/C=C/C(=C\C(=O)O)CC(=O)O)/C(C)=C\C=C(/C)C(=O)O (stereo unspecified)
GI50 [1]: > 100 µM (inactive) | GI50 [2]: > 100 µM (inactive) | GI50 [17]: > 100 µM (inactive) | GI50 [3]: > 100 µM (inactive) | GI50 [4]: > 100 µM (inactive) | GI50 [6]: > 100 µM (inactive) | GI50 [7]: > 100 µM (inactive) | GI50 [18]: > 100 µM (inactive) | GI50 [8]: > 100 µM (inactive) | GI50 [9]: > 100 µM (inactive) | GI50 [10]: > 100 µM (inactive) | GI50 [11]: > 100 µM (inactive) | GI50 [12]: > 100 µM (inactive) | GI50 [14]: > 100 µM (inactive) | GI50 [15]: > 100 µM (inactive) | GI50 [16]: > 100 µM (inactive)

CC1(C)CC2=NO[Se]3=C2C(=NO3)C1
GI50 [1]: 4.54 µM (inactive) | GI50 [2]: 3.14 µM (inactive) | GI50 [17]: 3.16 µM (inactive) | GI50 [3]: 3.69 µM (inactive) | GI50 [19]: 2.38 µM (inactive) | GI50 [4]: 2.27 µM (inactive) | GI50 [5]: 6.07 µM (inactive) | GI50 [6]: 4.08 µM (inactive) | GI50 [7]: 2.98 µM (inactive) | GI50 [18]: 3.42 µM (inactive) | GI50 [8]: 3.43 µM (inactive) | GI50 [9]: 5.3 µM (inactive) | GI50 [10]: 2.64 µM (inactive) | GI50 [12]: 1.34 µM (inactive) | GI50 [13]: 2.15 µM (inactive) | GI50 [14]: 4.43 µM (inactive) | GI50 [15]: 4.19 µM (inactive) | GI50 [16]: 5.78 µM (inactive)

O=C(Nn1c(-c2ccccc2)nc2ccccc2c1=O)c1cccc([N+](=O)[O-])c1
GI50 [1]: 79.6 µM (inactive) | GI50 [2]: 46.8 µM (inactive) | GI50 [17]: > 100 µM (inactive) | GI50 [3]: 62.4 µM (inactive) | GI50 [19]: > 100 µM (inactive) | GI50 [4]: 29.2 µM (inactive) | GI50 [5]: < 0.01 µM (active) | GI50 [6]: 61.1 µM (inactive) | GI50 [7]: 39.3 µM (inactive) | GI50 [18]: 44.4 µM (inactive) | GI50 [8]: > 100 µM (inactive) | GI50 [9]: > 100 µM (inactive) | GI50 [10]: > 100 µM (inactive) | GI50 [11]: 47.2 µM (inactive) | GI50 [12]: 53.8 µM (inactive) | GI50 [13]: > 100 µM (inactive) | GI50 [14]: > 100 µM (inactive)

Cc1[nH]c2ccccc2c1C1Cc2ccccc2N1C(=O)/C(Cl)=C/c1ccccc1 (stereo unspecified)
GI50 [1]: > 100 µM (inactive) | GI50 [2]: > 72.6 µM (inactive) | GI50 [17]: > 100 µM (inactive) | GI50 [3]: > 100 µM (inactive) | GI50 [19]: > 100 µM (inactive) | GI50 [4]: > 100 µM (inactive) | GI50 [6]: > 100 µM (inactive) | GI50 [7]: 16.3 µM (inactive) | GI50 [18]: 88.1 µM (inactive) | GI50 [9]: > 78.9 µM (inactive) | GI50 [10]: > 100 µM (inactive) | GI50 [11]: 29.2 µM (inactive) | GI50 [12]: > 100 µM (inactive) | GI50 [13]: 40.9 µM (inactive) | GI50 [14]: > 100 µM (inactive) | GI50 [16]: > 91 µM (inactive)

CCOC(=O)/C=C1\CCCC12OCCO2
GI50 [1]: > 100 µM (inactive) | GI50 [2]: 49.7 µM (inactive) | GI50 [17]: > 100 µM (inactive) | GI50 [3]: > 100 µM (inactive) | GI50 [19]: 89.5 µM (inactive) | GI50 [4]: > 100 µM (inactive) | GI50 [6]: > 100 µM (inactive) | GI50 [7]: > 100 µM (inactive) | GI50 [18]: > 100 µM (inactive) | GI50 [9]: > 100 µM (inactive) | GI50 [10]: > 100 µM (inactive) | GI50 [11]: 25.8 µM (inactive) | GI50 [12]: > 100 µM (inactive) | GI50 [13]: > 100 µM (inactive) | GI50 [14]: > 100 µM (inactive) | GI50 [16]: > 100 µM (inactive)

COc1cc(/C=C2/C(=O)N(C(=O)OCC(C)C)C(Cc3cc(OC)c(OC)c(C)c3OC)C(=O)N2Cc2ccccc2)c(OC)c(C)c1OC (stereo unspecified)
GI50 [1]: > 100 µM (inactive) | GI50 [2]: 21.8 µM (inactive) | GI50 [17]: > 100 µM (inactive) | GI50 [3]: > 100 µM (inactive) | GI50 [19]: > 100 µM (inactive) | GI50 [4]: > 100 µM (inactive) | GI50 [6]: > 100 µM (inactive) | GI50 [7]: 11.6 µM (inactive) | GI50 [18]: > 100 µM (inactive) | GI50 [9]: > 100 µM (inactive) | GI50 [10]: > 100 µM (inactive) | GI50 [11]: 25.1 µM (inactive) | GI50 [12]: 30.5 µM (inactive) | GI50 [13]: > 100 µM (inactive) | GI50 [14]: > 100 µM (inactive) | GI50 [16]: 94.6 µM (inactive)

CC1(C)CC(=O)C2=C(C1)NC(=S)C(C#N)C2c1ccccc1 (stereo unspecified)
GI50 [1]: > 100 µM (inactive) | GI50 [17]: > 100 µM (inactive) | GI50 [3]: > 100 µM (inactive) | GI50 [19]: > 100 µM (inactive) | GI50 [4]: > 100 µM (inactive) | GI50 [20]: > 100 µM (inactive) | GI50 [6]: > 100 µM (inactive) | GI50 [7]: > 100 µM (inactive) | GI50 [18]: > 100 µM (inactive) | GI50 [8]: > 100 µM (inactive) | GI50 [9]: > 100 µM (inactive) | GI50 [12]: > 100 µM (inactive) | GI50 [13]: > 100 µM (inactive) | GI50 [14]: > 100 µM (inactive) | GI50 [15]: > 100 µM (inactive) | GI50 [16]: > 100 µM (inactive)

O=C(Cn1c2c(c3ccccc31)CCCC2)N1CCCCC1
GI50 [1]: > 100 µM (inactive) | GI50 [2]: > 100 µM (inactive) | GI50 [17]: > 100 µM (inactive) | GI50 [19]: > 100 µM (inactive) | GI50 [4]: > 100 µM (inactive) | GI50 [20]: > 100 µM (inactive) | GI50 [6]: > 100 µM (inactive) | GI50 [7]: > 100 µM (inactive) | GI50 [18]: > 100 µM (inactive) | GI50 [8]: > 100 µM (inactive) | GI50 [11]: > 100 µM (inactive) | GI50 [12]: > 100 µM (inactive) | GI50 [13]: 86.7 µM (inactive) | GI50 [14]: > 100 µM (inactive) | GI50 [16]: > 100 µM (inactive)

Nc1ncnc2c1ncn2Cc1cccc(CCl)c1
GI50 [1]: 19.8 µM (inactive) | GI50 [2]: 5.38 µM (inactive) | GI50 [17]: 12.4 µM (inactive) | GI50 [3]: 13.8 µM (inactive) | GI50 [19]: 16.1 µM (inactive) | GI50 [4]: 12.8 µM (inactive) | GI50 [20]: 18.5 µM (inactive) | GI50 [7]: 16.5 µM (inactive) | GI50 [18]: 21.8 µM (inactive) | GI50 [8]: 19.1 µM (inactive) | GI50 [9]: 14.7 µM (inactive) | GI50 [10]: 15.1 µM (inactive) | GI50 [11]: 6.43 µM (inactive) | GI50 [12]: 14.2 µM (inactive) | GI50 [13]: 14.8 µM (inactive) | GI50 [14]: 15.1 µM (inactive) | GI50 [15]: 16.6 µM (inactive) | GI50 [16]: 15 µM (inactive)

CC(=O)OCCOCNC(=S)N/N=C/c1cc(Br)cs1
GI50 [1]: > 100 µM (inactive) | GI50 [2]: > 100 µM (inactive) | GI50 [17]: > 100 µM (inactive) | GI50 [3]: > 100 µM (inactive) | GI50 [19]: > 100 µM (inactive) | GI50 [4]: > 100 µM (inactive) | GI50 [6]: > 100 µM (inactive) | GI50 [7]: > 100 µM (inactive) | GI50 [18]: > 100 µM (inactive) | GI50 [9]: > 100 µM (inactive) | GI50 [10]: > 100 µM (inactive) | GI50 [11]: > 100 µM (inactive) | GI50 [12]: > 100 µM (inactive) | GI50 [13]: > 100 µM (inactive) | GI50 [14]: > 100 µM (inactive) | GI50 [16]: > 100 µM (inactive)

Cc1cc(N(CCC#N)S(=O)(=O)c2ccccc2)ccc1C=O
GI50 [1]: > 100 µM (inactive) | GI50 [2]: > 100 µM (inactive) | GI50 [17]: > 100 µM (inactive) | GI50 [3]: > 100 µM (inactive) | GI50 [19]: > 100 µM (inactive) | GI50 [4]: > 100 µM (inactive) | GI50 [6]: > 100 µM (inactive) | GI50 [7]: > 100 µM (inactive) | GI50 [18]: > 100 µM (inactive) | GI50 [9]: > 100 µM (inactive) | GI50 [10]: > 100 µM (inactive) | GI50 [11]: > 100 µM (inactive) | GI50 [12]: > 100 µM (inactive) | GI50 [13]: > 100 µM (inactive) | GI50 [14]: > 100 µM (inactive) | GI50 [16]: > 100 µM (inactive)
